pIC50: −log10 of the molar value. Read-outs that look alike come from different tables or passages of the source.
Key:
human skin explants = experiment: Whitening activity (ex vivo), Fontana-Masson staining for melanin quantification; assay type: cell-based; conditions: at 2%, topical, 7 days
Procedure: Fresh human skin explants were obtained from skin phototype III and VI donors, aged of 46±25 years. […] Kojic acid (Sigma-Aldrich) at 2% was topically applied and incubated under the same conditions, serving as positive control. The untreated condition was treated with the vehicle (distilled water). The medium was renewed every other day. After the end of culture, the skin explants were sampled and put in formalin before being dehydrated and embedded in paraffin for Fontana-Masson staining.
Skin explants fixed in formalin were dehydrated and embedded in paraffin. Sections of 4 μm thickness were dewaxed and then stained by Fontana-Masson silver method for melanin.
Images were collected using an Axio Observer Inverted fluorescence microscope (Zeiss) in bright field mode.
Melanin was quantified using two open source optical imaging software programs. Photomicrographs (jpeg format) of Fontana-Masson tissue sections were opened in GIMP-GNU Image Manipulation Program. The brown-black color signals corresponding to melanin grains on stained sections were selected, copied and pasted into a new image and saved as a jpeg file; this jpeg file consists solely of black/brown (melanin grains) on a white background. This image was subsequently opened using the ImageJ program. The image was then inverted and the mean intensity was obtained.

[1] = system: spontaneous formation of Advanced Glycation End-products (AGEs); experiment: Anti-glycation in tubo assay (BSA + ribose, fluorescence); assay type: biochemical; conditions: 17 h at 37° C.; for pIC50: BSA + ribose, read-out: IC50 in well (concentration which inhibits AGEs formation by half)
Procedure: The anti-glycation effect was evaluated using an in tubo assay to measure the spontaneous formation of Advanced Glycation End-products (AGEs). This assay was conducted on a 96-wells microplate. […] The extracts were diluted in sodium phosphate buffer (0.1 M, pH 7.4). Several dilutions were tested. Each diluted extract was run in triplicate. A standard range of aminoguanidine was used as inhibitor reference (positive control). A mixture of the sodium phosphate buffer and BSA was used to validate the experiment and a mixture of sodium phosphate buffer, BSA and ribose was used as the positive control. Two blanks were carried out for the extract: • with phosphate buffer, BSA and extract • with phosphate buffer, ribose and extract The microplate was agitated and incubated for 17 h at 37° C. The fluorescence reading was performed with ? excitation 340 nm and ? emission 420 nm. The anti-glycation activity of the extract was calculated as follows: [formula] FI: Fluorescence of tested extract; blank extract (ribose or BSA); positive control; negative control. Based on the above measurements and calculation, the IC50, i.e. the concentration of the extract which inhibits AGEs formation by half, was calculated.

[2] = system: Lactobacillus acidophilus; experiment: Growth promotion of Lactobacillus acidophilus (OD600); assay type: cell-based; conditions: MRS broth 50% in PBS, 48 hours, anaerobic
Procedure: In order to further investigate the effect of the active of the present invention on bacteria, the growth of Lactobacillus acidophilus in MRS medium supplemented with different concentrations of EGCG MONOG was evaluated for 48 hours.
L. acidophilus (DSM 20079) was cultivated at 37° C. under anaerobic conditions on De Man, Rogosa Sharpe (MRS) agar. After bacterial amplification in culture medium, for each bacterial strain, a bacterial suspension was prepared using the assay medium (MRS broth 50% in PBS) and adjusted to an optical density at 600 nm (OD600 nm) of 0.2. The bacterial suspension was then transferred to 96-well plates, some of which contained the test compounds from 0.015% to 1%. The strain cultivated with powdered milk at 0.01% served as a positive control.
Bacterial cultures were incubated at 37° C. under agitation (˜280 rpm) and under anaerobic condition. OD600 nm were read in kinetic for 48 hours using a microplate spectrophotometer (EPOCH2, BioTek Instruments) to analyze the bacterial growth.
All experimental conditions were performed in triplicate.

[3] = system: Lactobacillus acidophilus; conditions: 1%, culture supernatant, NMR, vs untreated
Procedure: The supernatants of the cultures previously described in Example 10, both of the untreated strain culture and the culture of L. acidophilus treated with 1% EGCG MONOG were kept and frozen at −80° C. before analysis using high-field NMR. For each of these two conditions, three samples were analyzed to assess the tests reproducibility (n=3).
For each sample, 400 μl of supernatant were taken and 100 μl of D2O/TSP (3-(trimethylsilyl)propionic-2,2,3,3-d4 acid sodium salt, internal reference) were added at a concentration of 1 g/l. The samples were analyzed by high field ^1H NMR on a Bruker ASCEND 500 spectrometer operating at a proton frequency of 500 MHz using a 5 mm cryosonde probe. NMR spectra were calibrated to TSP-d4 at 0 ppm using Topspin software version 4.3.0 (Bruker Biospin, Germany). Quantification of metabolites was performed by utilizing the internal standard (TSP-d4) added at a known concentration. Compounds were quantified by the relative ratio of the intensities of their peak integrals and those of the internal standard.

Structure (SMILES) | reduction of melanin content compared to untreated (human skin explants) [%] | pIC50 ([1]; listed as ECGC monoglucoside) | pIC50 [1] | Inhibition AGE's ([1]; tested concentration 0.08 mM) [%] | Inhibition AGE's ([1]; tested concentration 0.4 mM) [%] | Inhibition AGE's ([1]; tested concentration 1 mM) [%] | Inhibition AGE's ([1]; tested concentration 8 mM) [%] | increase of growth of Lactobacillus acidophilus vs culture without EGCG MONOG ([2]; 0.13%) [%] | increase of growth of Lactobacillus acidophilus vs culture without EGCG MONOG ([2]; 0.4%) [%] | increase of growth of Lactobacillus acidophilus vs culture without EGCG MONOG ([2]; 1%) [%] | decrease of consumption of sugars by L. acidophilus [3] [%] | increase of Trigonelline released by L. acidophilus [3] | increase of polysorbate consumption by L. acidophilus [3] [%]
O=C1O[C@H]([C@@H](O)CO)C(O)=C1O [Ascorbic acid, ascorbic acid] | 28 | – | – | – | – | – | – | – | – | – | – | – | –
O=C(O[C@@H]1Cc2c(O)cc(O)cc2O[C@@H]1c1cc(O)c(O[C@H]2O[C@H](CO)[C@@H](O)[C@H](O)[C@H]2O)c(O)c1)c1cc(O)c(O)c(O)c1 [epigallocatechin gallate 4′-O-α-monoglucoside] | – | 3.88 | 3.93 | 31.01 | 53.22 | 81.54 | 109.26 | 6 | 9 | 27 | 17 | up to 65% | 51

Source: patent US20260152777A1, “METHOD FOR PRODUCING EPIGALLOCATECHIN GALLATE MONOGLUCOSIDE” (GIVAUDAN SA, priority 2022, published 2026)
